Measured values taken from ChEMBL document CHEMBL4507265 (2021).

Columns and labels:
[1] = molecular target: Serine/threonine-protein kinase D3 (Homo sapiens) (UniProt O94806); details: Compound concentration 1000.0 nM
[2] = molecular target: MAP kinase-interacting serine/threonine-protein kinase 1 (Homo sapiens) (UniProt Q9BUB5); details: Compound concentration 1000.0 nM
[3] = test system: Receptor-type tyrosine-protein kinase FLT3 (Homo sapiens), P36888 [N841I]; details: Compound concentration 1000.0 nM
[4] = molecular target: Cyclin-dependent kinase-like 2 (Homo sapiens) (UniProt Q92772); details: Compound concentration 1000.0 nM
[5] = molecular target: Focal adhesion kinase 1 (Homo sapiens) (UniProt Q05397); details: Compound concentration 1000.0 nM
[6] = molecular target: Myosin-IIIb (Homo sapiens) (UniProt Q8WXR4); details: Compound concentration 1000.0 nM
Chain of Myosin-IIIb (Homo sapiens) (Q8WXR4 whole entry): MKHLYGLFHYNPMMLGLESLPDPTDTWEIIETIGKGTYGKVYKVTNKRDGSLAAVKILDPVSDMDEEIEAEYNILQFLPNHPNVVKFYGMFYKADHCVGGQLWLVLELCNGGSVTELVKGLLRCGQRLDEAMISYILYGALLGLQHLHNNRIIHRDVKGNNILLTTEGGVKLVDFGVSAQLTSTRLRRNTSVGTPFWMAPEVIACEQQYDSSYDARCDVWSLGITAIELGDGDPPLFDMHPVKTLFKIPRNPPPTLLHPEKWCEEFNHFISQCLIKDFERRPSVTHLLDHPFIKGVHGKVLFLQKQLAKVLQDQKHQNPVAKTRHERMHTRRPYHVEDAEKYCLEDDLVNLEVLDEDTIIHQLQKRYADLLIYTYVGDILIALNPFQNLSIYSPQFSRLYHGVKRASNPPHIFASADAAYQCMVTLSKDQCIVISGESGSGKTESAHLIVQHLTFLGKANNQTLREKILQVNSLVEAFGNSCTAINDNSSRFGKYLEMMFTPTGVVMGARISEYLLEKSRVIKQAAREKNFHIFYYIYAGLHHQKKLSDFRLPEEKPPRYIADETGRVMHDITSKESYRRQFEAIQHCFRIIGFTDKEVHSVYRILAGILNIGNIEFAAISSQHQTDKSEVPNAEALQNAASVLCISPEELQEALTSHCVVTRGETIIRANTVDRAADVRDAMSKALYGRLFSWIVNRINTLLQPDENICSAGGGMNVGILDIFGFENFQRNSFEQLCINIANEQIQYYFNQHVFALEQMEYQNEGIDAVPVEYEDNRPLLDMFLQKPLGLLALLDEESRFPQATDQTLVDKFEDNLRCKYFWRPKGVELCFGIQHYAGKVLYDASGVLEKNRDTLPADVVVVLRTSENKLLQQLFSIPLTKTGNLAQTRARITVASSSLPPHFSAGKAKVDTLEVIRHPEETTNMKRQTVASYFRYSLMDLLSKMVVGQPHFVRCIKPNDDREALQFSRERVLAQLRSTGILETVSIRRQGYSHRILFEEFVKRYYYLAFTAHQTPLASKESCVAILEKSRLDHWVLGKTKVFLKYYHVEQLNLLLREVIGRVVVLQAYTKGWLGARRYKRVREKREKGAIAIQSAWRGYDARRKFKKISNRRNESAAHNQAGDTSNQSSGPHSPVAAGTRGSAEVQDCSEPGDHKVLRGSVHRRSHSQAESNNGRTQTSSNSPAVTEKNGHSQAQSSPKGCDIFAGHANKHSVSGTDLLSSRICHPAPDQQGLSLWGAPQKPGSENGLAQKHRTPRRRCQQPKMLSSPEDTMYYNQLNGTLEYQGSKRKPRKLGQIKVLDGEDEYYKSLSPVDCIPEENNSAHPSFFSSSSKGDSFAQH

[7] = molecular target: Ribosomal protein S6 kinase alpha-3 (Homo sapiens) (UniProt P51812); details: Compound concentration 1000.0 nM
[8] = molecular target: Tyrosine-protein kinase JAK2 (Homo sapiens) (UniProt O60674); details: Compound concentration 1000.0 nM
[9] = molecular target: Serine/threonine-protein kinase 17A (Homo sapiens) (UniProt Q9UEE5); details: Compound concentration 1000.0 nM
[10] = molecular target: Serine/threonine-protein kinase DCLK1 (Homo sapiens) (UniProt O15075); details: Compound concentration 1000.0 nM
Chain of Serine/threonine-protein kinase DCLK1 (Homo sapiens) (O15075 whole entry): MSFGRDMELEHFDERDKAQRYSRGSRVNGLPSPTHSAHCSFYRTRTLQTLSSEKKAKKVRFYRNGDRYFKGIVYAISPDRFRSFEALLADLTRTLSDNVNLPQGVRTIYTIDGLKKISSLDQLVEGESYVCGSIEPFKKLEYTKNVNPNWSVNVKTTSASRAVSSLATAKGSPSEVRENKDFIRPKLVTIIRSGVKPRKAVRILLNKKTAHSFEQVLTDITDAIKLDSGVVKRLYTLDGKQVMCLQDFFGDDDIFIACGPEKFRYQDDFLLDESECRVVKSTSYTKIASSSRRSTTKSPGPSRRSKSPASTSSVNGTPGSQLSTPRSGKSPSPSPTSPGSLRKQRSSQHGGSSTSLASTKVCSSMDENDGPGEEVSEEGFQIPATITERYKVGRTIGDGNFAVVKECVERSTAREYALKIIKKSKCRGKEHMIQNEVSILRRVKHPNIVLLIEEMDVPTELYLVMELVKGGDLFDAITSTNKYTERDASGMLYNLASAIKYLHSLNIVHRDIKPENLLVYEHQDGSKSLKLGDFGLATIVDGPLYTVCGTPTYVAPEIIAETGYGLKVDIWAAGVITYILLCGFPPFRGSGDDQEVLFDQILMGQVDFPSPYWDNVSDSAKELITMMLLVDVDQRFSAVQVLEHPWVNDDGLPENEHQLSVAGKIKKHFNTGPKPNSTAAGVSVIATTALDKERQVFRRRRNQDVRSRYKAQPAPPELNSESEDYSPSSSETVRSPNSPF

[11] = molecular target: Bone morphogenetic protein receptor type-1A (Homo sapiens) (UniProt P36894); details: Compound concentration 1000.0 nM
Chain of Bone morphogenetic protein receptor type-1A (Homo sapiens) (P36894 whole entry): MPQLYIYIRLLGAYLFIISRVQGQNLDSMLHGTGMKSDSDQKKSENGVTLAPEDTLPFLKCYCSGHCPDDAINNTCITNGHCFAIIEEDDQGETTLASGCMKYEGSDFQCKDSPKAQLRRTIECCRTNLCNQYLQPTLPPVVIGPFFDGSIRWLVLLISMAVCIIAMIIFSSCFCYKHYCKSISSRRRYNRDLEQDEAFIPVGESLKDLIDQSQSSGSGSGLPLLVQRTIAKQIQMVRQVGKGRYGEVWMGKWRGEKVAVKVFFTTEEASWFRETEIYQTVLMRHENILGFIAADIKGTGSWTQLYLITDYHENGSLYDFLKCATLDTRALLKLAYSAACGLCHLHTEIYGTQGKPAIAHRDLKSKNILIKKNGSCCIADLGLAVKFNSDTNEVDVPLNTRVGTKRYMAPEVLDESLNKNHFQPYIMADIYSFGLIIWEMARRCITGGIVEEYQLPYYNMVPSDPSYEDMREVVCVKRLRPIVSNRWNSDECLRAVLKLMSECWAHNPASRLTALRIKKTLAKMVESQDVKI

[12] = molecular target: 5-hydroxytryptamine receptor 2A (Homo sapiens) (UniProt P28223); details: Compound concentration 10.0 uM
[13] = molecular target: D(2) dopamine receptor (Homo sapiens) (UniProt P14416); details: Compound concentration 10.0 uM
[14] = molecular target: Casein kinase I isoform gamma-1 (Homo sapiens) (UniProt Q9HCP0); details: Compound concentration 1000.0 nM
[15] = molecular target: Serine/threonine-protein kinase MAK (Homo sapiens) (UniProt P20794); details: Compound concentration 1000.0 nM
[16] = molecular target: Cyclin-dependent kinase 9 (Homo sapiens) (UniProt P50750); details: Compound concentration 1000.0 nM
[17] = molecular target: Ephrin type-B receptor 2 (Homo sapiens) (UniProt P29323); details: Compound concentration 1000.0 nM
[18] = molecular target: Bone morphogenetic protein receptor type-2 (Homo sapiens) (UniProt Q13873); details: Compound concentration 1000.0 nM
[19] = molecular target: cAMP-dependent protein kinase catalytic subunit alpha (Homo sapiens) (UniProt P17612); details: Compound concentration 1000.0 nM
[20] = molecular target: Homeodomain-interacting protein kinase 2 (Homo sapiens) (UniProt Q9H2X6); details: Compound concentration 1000.0 nM
[21] = molecular target: Ribosomal protein S6 kinase alpha-2 (Homo sapiens) (UniProt Q15349); details: Compound concentration 1000.0 nM
Chain of Ribosomal protein S6 kinase alpha-2 (Homo sapiens) (Q15349 whole entry): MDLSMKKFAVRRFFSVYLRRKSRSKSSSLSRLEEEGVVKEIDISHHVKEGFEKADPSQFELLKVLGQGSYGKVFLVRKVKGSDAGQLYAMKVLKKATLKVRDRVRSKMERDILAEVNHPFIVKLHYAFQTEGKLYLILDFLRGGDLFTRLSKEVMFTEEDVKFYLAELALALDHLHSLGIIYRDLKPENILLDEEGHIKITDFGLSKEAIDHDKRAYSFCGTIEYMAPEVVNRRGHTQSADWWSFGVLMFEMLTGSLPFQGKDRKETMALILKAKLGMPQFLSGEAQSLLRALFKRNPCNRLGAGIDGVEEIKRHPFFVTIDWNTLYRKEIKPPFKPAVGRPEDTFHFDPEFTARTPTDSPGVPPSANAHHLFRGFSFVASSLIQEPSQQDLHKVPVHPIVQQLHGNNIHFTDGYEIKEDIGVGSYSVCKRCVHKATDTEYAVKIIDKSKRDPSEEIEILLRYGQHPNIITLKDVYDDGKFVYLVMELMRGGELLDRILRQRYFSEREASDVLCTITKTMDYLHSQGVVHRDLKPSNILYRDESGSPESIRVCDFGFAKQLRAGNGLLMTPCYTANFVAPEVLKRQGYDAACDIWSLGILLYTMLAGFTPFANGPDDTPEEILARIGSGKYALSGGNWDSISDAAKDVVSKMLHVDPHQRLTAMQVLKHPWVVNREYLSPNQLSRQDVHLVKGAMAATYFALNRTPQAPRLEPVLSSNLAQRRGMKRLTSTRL

[22] = test system: Receptor-type tyrosine-protein kinase FLT3 (Homo sapiens), P36888 [R834Q]; details: Compound concentration 1000.0 nM
[23] = molecular target: Wee1-like protein kinase (Homo sapiens) (UniProt P30291); details: Compound concentration 1000.0 nM
[24] = molecular target: T1, Alpha-2A adrenergic receptor (Homo sapiens) (UniProt P08913); details: Compound concentration 10.0 uM
T1 sequence (whole entry): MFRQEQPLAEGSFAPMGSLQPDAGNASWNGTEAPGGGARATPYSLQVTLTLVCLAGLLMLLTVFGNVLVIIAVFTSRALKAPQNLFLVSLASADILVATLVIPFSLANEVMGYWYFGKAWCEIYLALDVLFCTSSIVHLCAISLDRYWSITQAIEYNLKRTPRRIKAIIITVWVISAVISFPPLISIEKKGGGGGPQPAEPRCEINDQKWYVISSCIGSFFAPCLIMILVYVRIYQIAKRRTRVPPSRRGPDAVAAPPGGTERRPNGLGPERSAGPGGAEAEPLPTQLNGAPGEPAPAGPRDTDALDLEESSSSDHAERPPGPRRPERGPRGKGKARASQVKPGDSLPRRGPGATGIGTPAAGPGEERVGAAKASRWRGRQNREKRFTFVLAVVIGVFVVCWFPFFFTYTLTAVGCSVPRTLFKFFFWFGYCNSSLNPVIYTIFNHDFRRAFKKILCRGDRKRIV

[25] = molecular target: Cyclin-dependent kinase 2 homolog (Plasmodium falciparum (isolate 3D7)) (UniProt P61075); details: Compound concentration 1000.0 nM
Chain of Cyclin-dependent kinase 2 homolog (Plasmodium falciparum (isolate 3D7)) (P61075 whole entry, the tested form may be a part): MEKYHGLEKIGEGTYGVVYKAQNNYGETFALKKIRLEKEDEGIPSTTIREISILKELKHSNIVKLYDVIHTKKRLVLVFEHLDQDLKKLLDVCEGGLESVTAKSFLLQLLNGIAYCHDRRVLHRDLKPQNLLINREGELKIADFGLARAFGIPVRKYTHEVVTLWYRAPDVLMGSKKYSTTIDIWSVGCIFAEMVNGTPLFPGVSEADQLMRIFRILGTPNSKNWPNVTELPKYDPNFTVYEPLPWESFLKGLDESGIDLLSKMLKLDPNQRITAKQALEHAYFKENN

[26] = molecular target: Ankyrin repeat and protein kinase domain-containing protein 1 (Homo sapiens) (UniProt Q8NFD2); details: Compound concentration 1000.0 nM
[27] = molecular target: Fibroblast growth factor receptor 4 (Homo sapiens) (UniProt P22455); details: Compound concentration 1000.0 nM
[28] = molecular target: Glycogen synthase kinase-3 alpha (Homo sapiens) (UniProt P49840); details: Compound concentration 1000.0 nM
[29] = molecular target: Hepatocyte growth factor receptor (Homo sapiens) (UniProt P08581); details: Compound concentration 1000.0 nM
[30] = molecular target: Ephrin type-B receptor 4 (Homo sapiens) (UniProt P54760); details: Compound concentration 1000.0 nM
[31] = molecular target: Cyclin-dependent kinase 18 (Homo sapiens) (UniProt Q07002); details: Compound concentration 1000.0 nM
[32] = molecular target: SRSF protein kinase 1 (Homo sapiens) (UniProt Q96SB4); details: Compound concentration 1000.0 nM
Chain of SRSF protein kinase 1 (Homo sapiens) (Q96SB4 whole entry): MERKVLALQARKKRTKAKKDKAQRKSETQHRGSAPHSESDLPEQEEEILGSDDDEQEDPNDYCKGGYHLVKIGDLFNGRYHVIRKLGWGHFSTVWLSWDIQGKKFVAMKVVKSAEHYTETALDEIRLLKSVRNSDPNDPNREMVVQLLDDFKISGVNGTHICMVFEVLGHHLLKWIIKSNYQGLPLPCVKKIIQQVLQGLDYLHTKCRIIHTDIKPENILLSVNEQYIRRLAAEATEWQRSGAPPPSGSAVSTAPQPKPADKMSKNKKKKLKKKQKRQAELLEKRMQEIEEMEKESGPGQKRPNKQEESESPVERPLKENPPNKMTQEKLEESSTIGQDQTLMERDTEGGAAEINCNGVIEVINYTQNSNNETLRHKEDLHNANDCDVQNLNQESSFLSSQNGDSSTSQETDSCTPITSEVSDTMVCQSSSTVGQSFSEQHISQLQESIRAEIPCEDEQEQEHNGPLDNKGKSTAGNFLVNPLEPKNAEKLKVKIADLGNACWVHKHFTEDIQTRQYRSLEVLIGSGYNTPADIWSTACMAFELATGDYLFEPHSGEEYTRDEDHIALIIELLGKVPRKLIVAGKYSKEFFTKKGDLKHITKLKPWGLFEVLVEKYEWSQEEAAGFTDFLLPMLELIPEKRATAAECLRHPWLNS

[33] = molecular target: NT-3 growth factor receptor (Homo sapiens) (UniProt Q16288); details: Compound concentration 1000.0 nM
[34] = test system: Tyrosine-protein kinase ABL1 (Homo sapiens), P00519 [T315I]; details: Compound concentration 1000.0 nM
[35] = molecular target: Serine/threonine-protein kinase pim-3 (Homo sapiens) (UniProt Q86V86); details: Compound concentration 1000.0 nM
[36] = molecular target: Mast/stem cell growth factor receptor Kit (Homo sapiens) (UniProt P10721); details: Compound concentration 1000.0 nM
[37] = molecular target: Tyrosine-protein kinase receptor UFO (Homo sapiens) (UniProt P30530); details: Compound concentration 1000.0 nM
[38] = molecular target: Calcium/calmodulin-dependent protein kinase type 1 (Homo sapiens) (UniProt Q14012); details: Compound concentration 1000.0 nM
[39] = molecular target: Microtubule-associated serine/threonine-protein kinase 1 (Homo sapiens) (UniProt Q9Y2H9); details: Compound concentration 1000.0 nM

Chain of MAP kinase-interacting serine/threonine-protein kinase 1 (Homo sapiens) (Q9BUB5 whole entry, looked up): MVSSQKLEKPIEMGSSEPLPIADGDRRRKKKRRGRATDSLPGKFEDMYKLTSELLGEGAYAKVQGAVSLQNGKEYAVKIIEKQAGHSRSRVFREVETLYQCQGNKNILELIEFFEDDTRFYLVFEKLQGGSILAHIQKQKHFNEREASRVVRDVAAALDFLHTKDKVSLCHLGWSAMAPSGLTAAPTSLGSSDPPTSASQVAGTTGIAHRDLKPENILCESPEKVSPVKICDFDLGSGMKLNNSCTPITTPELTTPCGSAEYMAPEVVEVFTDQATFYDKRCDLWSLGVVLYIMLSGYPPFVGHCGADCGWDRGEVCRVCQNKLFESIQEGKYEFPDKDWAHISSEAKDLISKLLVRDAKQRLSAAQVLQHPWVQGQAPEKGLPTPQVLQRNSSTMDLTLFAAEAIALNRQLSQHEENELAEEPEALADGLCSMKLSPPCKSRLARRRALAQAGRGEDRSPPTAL

Structure (SMILES)	residual activity [1] [%]	residual activity [2] [%]	residual activity [3] [%]	residual activity [4] [%]	residual activity [5] [%]	residual activity [6] [%]	residual activity [7] [%]	residual activity [8] [%]	residual activity [9] [%]	residual activity [10] [%]	residual activity [11] [%]	inhibition [12] [%]	inhibition [13] [%]	residual activity [14] [%]	residual activity [15] [%]	residual activity [16] [%]	residual activity [17] [%]	residual activity [18] [%]	residual activity [19] [%]	residual activity [20] [%]	also measured
NS(=O)(=O)c1cc(NC(=O)C2(c3ccccc3Cl)CC2)ccc1Oc1cccc(Cl)c1 [BAY-207]	85	99	32	94	87	29	92	100	85	68	90	11.3	-9.74	90	89	78	74	100	94	88	residual activity [21]: 100%; residual activity [22]: 100%; residual activity [23]: 91%; inhibition [24]: 40.8%; residual activity [25]: 93%; residual activity [26]: 97%; residual activity [27]: 100%; residual activity [28]: 90%; residual activity [29]: 81%; residual activity [30]: 57%; residual activity [31]: 69%; residual activity [32]: 71%; residual activity [33]: 88%; residual activity [34]: 82%; residual activity [35]: 88%; residual activity [36]: 90%; residual activity [37]: 89%; residual activity [38]: 100%; residual activity [39]: 100%
NS(=O)(=O)c1cc(NC(=O)Cc2ccccc2)ccc1Oc1cccc(Cl)c1 [BAY-1797]	100	79	55	99	96	100	98	73	94	86	69	-2.5	-7.81	89	100	92	100	73	94	62	residual activity [21]: 89%; residual activity [22]: 91%; residual activity [23]: 75%; inhibition [24]: 6.31%; residual activity [25]: 100%; residual activity [26]: 78%; residual activity [27]: 95%; residual activity [28]: 93%; residual activity [29]: 91%; residual activity [30]: 98%; residual activity [31]: 100%; residual activity [32]: 62%; residual activity [33]: 87%; residual activity [34]: 61%; residual activity [35]: 96%; residual activity [36]: 89%; residual activity [37]: 93%; residual activity [38]: 90%; residual activity [39]: 85%
